Measurements as given in publication PMC5458547, “Discovery of first-in-class reversible dual small molecule inhibitors against G9a and DNMTs in hematological malignancies” (Nature Communications, 2017).

Assays:
[1] = system: H1299; experiment: Cell proliferation assay (MTS); format: cell-based; settings: Homo sapiens, NCI-H1299; NSCLC
[2] = in vitro; format: cell-based; settings: human
Description: Cell viability was determined by measuring the concentration of cellular adenosine triphosphate (ATP) using the ATP1Step Kit as described by the manufacturer (Perkin-Elmer). PBMCs were isolated following the regular density gradient centrifugation procedure with Ficoll. Details are provided in Supplementary Information. […]
each test plate followed by incubation for 10 min at room temperature on an orbital shaker. ATP concentration was determined by reading chemical luminescence using the Envision plate reader (PerkinElmer). The percentage of viable cells relative to the non-drug treated controls was determined for […]
Cells were plated in 96-well black microplates at 100,000 cells/well density with DMEM medium (containing 10% FBS and antibiotics) and were incubated at 37 °C (5% CO2, 95% humidity) for 24 h. […] Following this 72 h exposure to test compounds, cell viability in each well was determined by measuring the concentration of cellular adenosine triphosphate (ATP) using the ATP1Step Kit as described by the manufacturer (Perkin-Elmer). […] ATP concentration was determined by reading chemical luminescence using the Envision plate reader (PerkinElmer). […]
sampler temperature was set at 7 °C and column temperature at 50 °C. For detection and quantification, the electrospray ionization operated in the positive mode, and the collision gas used was ultra-pure argon at a flow rate of 0.15 mL min−1. […]

[3] = Plasma protein binding (equilibrium dialysis); format: in vitro ADME; settings: pH 7.4
Description: This study was conducted by Equilibrium Dialysis at Wuxi (http://www.wuxi.com/). HT-Dialysis plate (Model HTD 96 b, Cat# 1006) and the dialysis membrane (molecular weight cut off 12-14 kDa, Cat# 1101) were purchased from HT Dialysis LLC (Gales Ferry, CT). Human plasma and CD-1 mouse plasma from Bioreclamation were thawed prior to experiment and the pH was adjusted at 7.4. Concentrations of test compounds in starting solution (before dialysis), plasma side of the membrane and buffer side of the membrane were quantified by LC-MS/MS (Shimadzu LC 20-AD - API 4000) methodologies, using peak area ratio of analyte/internal standard. The fraction of unbound, bound and recovery were calculated.
Results are the average of three replicates. […]
The pH was adjusted to 7.40±0.05 using either 1 M sodium hydroxide or 1 M hydrochloric acid. Test compounds were diluted to 0.2 mM in DMSO and further diluted prior to testing to 10 µM in PBS, pH 7.4 (final 5% DMSO). The assay was performed using a 96-well multiscreen-IP PAMPA plate (Millipore, Cat. # MAIPN4510), whose PVDF membrane was pre-coated with 5 µL of 1% lecithin/dodecane mixture. 150 µL of PBS solution containing the test compounds were added to the donor chamber. Blank PBS (300 µL) was also added to the PTFE acceptor plate, and the donor and acceptor plates were assembled and incubated for 4 h at room temperature with shaking at 150 rpm. […]

[4] = molecular target: T1, JMJD3 (Homo sapiens, UniProt O15054); experiment: Epigenetics selectivity panel (BPS Bioscience); format: biochemical
T1 construct: purchased DiscoverX KINOMEscan (kinases); BPS Bioscience (epigenetic targets)

[5] = molecular target: T2, ATAD2A (Homo sapiens, UniProt Q6PL18); experiment: Epigenetics selectivity panel (BPS Bioscience); format: binding
T2 construct: purchased DiscoverX KINOMEscan (kinases); BPS Bioscience (epigenetic targets)
T2 sequence (Q6PL18 whole entry): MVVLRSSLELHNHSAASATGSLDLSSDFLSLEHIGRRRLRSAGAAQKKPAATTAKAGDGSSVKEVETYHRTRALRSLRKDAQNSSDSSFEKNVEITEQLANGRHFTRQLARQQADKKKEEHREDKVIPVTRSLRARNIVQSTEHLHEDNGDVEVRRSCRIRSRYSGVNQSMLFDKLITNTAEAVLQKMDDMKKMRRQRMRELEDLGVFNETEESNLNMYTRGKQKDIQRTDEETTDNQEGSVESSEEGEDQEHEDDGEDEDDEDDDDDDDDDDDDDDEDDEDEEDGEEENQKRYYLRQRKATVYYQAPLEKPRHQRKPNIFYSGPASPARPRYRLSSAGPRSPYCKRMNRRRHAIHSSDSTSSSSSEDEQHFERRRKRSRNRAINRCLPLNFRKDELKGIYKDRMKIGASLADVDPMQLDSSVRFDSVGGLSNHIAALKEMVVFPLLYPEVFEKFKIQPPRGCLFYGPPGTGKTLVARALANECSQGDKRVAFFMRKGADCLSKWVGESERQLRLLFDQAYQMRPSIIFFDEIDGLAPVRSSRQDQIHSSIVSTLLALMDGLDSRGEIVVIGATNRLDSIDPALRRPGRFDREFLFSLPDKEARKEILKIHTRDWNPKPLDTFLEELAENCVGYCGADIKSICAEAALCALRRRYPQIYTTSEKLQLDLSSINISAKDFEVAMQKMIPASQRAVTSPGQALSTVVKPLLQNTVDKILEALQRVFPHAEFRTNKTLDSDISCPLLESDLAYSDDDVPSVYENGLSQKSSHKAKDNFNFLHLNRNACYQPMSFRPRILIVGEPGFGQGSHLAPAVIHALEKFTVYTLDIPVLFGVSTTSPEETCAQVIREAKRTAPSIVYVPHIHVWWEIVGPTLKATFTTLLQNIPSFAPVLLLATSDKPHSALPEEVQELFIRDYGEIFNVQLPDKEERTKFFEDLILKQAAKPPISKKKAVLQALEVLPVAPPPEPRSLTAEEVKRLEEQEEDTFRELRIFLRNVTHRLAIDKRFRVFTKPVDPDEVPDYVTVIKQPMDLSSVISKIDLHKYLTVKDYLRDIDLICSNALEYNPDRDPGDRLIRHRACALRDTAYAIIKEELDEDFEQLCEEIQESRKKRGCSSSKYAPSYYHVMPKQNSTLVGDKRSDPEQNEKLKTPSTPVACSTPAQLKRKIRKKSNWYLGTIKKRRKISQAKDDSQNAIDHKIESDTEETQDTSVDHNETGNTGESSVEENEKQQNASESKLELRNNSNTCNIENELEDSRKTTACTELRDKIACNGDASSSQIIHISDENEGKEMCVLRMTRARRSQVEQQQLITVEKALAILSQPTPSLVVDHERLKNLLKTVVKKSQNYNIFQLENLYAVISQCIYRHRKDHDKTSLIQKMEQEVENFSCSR

[6] = system: PC3; experiment: Cell proliferation assay (MTS); format: cell-based; settings: Homo sapiens, PC-3; Prostate
[7] = system: PEER; experiment: Cell proliferation assay (MTS); format: cell-based; settings: Homo sapiens; ALL, 48 h
[8] = system: DU145; experiment: Cell proliferation assay (MTS); format: cell-based; settings: Homo sapiens, DU-145; Prostate
[9] = molecular target: T3, JMJD2E (Homo sapiens, UniProt B2RXH2); experiment: Epigenetics selectivity panel (BPS Bioscience); format: biochemical
T3 construct: purchased DiscoverX KINOMEscan (kinases); BPS Bioscience (epigenetic targets)

[10] = molecular target: T4, PRMT4 (Homo sapiens, UniProt Q86X55); experiment: Epigenetics selectivity panel (BPS Bioscience); format: biochemical
T4 construct: purchased DiscoverX KINOMEscan (kinases); BPS Bioscience (epigenetic targets)
T4 sequence (Q86X55 whole entry): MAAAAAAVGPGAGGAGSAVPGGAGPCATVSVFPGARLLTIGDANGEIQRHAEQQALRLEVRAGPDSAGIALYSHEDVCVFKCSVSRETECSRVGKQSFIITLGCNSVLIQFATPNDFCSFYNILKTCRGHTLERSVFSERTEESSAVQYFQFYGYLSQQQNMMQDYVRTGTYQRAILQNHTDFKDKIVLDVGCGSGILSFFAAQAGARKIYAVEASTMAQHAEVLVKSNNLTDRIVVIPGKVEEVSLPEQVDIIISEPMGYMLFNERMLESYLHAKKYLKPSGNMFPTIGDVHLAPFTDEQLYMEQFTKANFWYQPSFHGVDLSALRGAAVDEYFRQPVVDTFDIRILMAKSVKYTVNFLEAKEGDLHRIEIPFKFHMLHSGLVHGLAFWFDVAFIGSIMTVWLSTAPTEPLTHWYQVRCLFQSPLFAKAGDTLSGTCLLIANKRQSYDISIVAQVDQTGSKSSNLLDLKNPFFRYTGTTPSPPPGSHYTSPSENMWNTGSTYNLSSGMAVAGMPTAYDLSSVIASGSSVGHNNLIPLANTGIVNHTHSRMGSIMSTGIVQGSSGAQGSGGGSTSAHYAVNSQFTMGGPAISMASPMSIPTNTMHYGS

[11] = system: MOLT-4; experiment: Cell proliferation assay (MTS); format: cell-based; settings: Homo sapiens, ALL, 48 h
[12] = system: JJN3; experiment: Cell proliferation assay (MTS); format: cell-based; settings: Homo sapiens, JJN-3; MM
[13] = system: KMS28BM; experiment: Cell proliferation assay (MTS); format: cell-based; settings: Homo sapiens, KMS-28BM; MM
[14] = system: MM1.S; experiment: Cell proliferation assay (MTS); format: cell-based; settings: Homo sapiens
[15] = molecular target: T5, Jarid1B (Homo sapiens, UniProt Q9UGL1); experiment: Epigenetics selectivity panel (BPS Bioscience); format: biochemical
T5 construct: purchased DiscoverX KINOMEscan (kinases); BPS Bioscience (epigenetic targets)

[16] = molecular target: T6, PRMT5 (Homo sapiens, UniProt O14744); experiment: Epigenetics selectivity panel (BPS Bioscience); format: biochemical
T6 construct: purchased DiscoverX KINOMEscan (kinases); BPS Bioscience (epigenetic targets)

[17] = molecular target: T7, EZH1 (Homo sapiens, UniProt Q92800); experiment: Epigenetics selectivity panel (BPS Bioscience); format: biochemical
T7 construct: purchased DiscoverX KINOMEscan (kinases); BPS Bioscience (epigenetic targets)
T7 sequence (Q92800 whole entry): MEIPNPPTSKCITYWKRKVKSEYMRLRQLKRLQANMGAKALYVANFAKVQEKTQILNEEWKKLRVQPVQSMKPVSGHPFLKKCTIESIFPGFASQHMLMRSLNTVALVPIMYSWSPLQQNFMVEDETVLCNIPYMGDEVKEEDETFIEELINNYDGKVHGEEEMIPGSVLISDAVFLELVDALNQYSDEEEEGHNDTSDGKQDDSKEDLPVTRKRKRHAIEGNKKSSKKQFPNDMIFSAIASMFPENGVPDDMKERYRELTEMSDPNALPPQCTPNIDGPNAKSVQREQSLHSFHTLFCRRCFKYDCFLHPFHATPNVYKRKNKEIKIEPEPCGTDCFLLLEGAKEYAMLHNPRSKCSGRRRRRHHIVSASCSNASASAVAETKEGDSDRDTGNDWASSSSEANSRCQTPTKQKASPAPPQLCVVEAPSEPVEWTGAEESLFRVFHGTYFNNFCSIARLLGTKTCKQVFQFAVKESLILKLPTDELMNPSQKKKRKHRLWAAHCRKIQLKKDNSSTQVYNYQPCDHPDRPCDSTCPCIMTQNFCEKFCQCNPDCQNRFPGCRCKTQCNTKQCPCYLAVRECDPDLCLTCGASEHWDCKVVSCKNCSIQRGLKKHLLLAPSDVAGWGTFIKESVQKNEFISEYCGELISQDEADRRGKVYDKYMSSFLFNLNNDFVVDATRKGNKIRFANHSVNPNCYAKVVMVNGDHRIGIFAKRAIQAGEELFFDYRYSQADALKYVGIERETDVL
T7 sequence (O75530 whole entry partner): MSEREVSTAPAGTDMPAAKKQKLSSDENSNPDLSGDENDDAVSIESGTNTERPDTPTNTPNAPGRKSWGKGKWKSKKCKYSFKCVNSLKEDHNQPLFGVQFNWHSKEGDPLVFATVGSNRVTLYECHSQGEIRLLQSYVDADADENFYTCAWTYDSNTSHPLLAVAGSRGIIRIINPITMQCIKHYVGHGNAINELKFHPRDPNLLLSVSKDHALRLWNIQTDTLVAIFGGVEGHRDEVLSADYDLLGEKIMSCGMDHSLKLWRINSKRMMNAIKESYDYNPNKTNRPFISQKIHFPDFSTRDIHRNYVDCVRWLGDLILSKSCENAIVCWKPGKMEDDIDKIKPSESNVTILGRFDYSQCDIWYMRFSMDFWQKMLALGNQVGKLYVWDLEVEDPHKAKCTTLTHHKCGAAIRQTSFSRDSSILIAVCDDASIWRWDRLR
T7 sequence (Q15022 whole entry partner): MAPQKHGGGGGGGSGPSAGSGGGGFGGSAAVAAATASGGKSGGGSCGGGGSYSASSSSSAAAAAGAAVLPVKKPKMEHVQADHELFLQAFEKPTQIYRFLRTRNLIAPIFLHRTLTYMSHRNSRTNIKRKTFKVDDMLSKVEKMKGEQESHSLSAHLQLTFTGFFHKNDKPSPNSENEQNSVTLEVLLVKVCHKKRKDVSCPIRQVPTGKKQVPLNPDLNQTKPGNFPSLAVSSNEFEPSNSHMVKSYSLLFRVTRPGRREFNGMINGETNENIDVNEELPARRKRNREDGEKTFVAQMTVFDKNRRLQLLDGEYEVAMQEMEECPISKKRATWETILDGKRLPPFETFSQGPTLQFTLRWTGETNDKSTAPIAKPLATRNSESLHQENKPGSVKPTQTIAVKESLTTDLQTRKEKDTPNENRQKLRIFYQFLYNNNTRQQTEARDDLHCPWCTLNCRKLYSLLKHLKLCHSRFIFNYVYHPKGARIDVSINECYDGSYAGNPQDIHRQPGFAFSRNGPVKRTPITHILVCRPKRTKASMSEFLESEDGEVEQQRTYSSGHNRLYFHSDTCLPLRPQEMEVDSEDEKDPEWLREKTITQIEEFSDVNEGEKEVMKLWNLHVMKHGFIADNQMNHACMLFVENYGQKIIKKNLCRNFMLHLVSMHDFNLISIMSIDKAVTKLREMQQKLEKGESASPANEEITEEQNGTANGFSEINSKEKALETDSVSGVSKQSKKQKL
T7 sequence (Q09028 whole entry partner): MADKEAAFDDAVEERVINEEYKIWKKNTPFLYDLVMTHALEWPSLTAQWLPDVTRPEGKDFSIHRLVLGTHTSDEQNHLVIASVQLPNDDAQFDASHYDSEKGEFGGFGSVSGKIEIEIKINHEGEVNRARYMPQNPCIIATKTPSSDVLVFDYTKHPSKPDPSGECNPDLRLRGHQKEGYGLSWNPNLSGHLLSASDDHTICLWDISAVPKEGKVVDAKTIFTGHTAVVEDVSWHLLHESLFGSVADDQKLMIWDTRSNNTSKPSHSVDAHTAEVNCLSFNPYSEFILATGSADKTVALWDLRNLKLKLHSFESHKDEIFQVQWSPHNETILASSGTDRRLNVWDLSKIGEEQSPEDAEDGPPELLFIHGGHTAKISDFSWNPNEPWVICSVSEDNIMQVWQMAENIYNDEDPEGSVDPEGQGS
T7 sequence (Q6ZN18 whole entry partner): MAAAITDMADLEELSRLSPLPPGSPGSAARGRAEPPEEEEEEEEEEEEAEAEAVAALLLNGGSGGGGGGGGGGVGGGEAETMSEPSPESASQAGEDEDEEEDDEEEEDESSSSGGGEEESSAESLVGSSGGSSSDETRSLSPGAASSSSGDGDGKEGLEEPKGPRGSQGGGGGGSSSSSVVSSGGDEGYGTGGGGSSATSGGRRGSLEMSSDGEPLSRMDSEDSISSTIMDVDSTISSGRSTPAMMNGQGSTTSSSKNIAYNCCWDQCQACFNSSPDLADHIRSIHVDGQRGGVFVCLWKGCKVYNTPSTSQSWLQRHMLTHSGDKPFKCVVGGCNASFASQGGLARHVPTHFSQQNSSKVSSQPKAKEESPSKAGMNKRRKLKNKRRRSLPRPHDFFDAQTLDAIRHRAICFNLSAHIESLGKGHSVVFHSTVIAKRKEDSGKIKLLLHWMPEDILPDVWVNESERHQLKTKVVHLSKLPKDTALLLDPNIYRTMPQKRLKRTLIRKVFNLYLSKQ

[18] = system: HCT-116; experiment: Cell proliferation assay (MTS); format: cell-based; settings: Homo sapiens, Colorectal

SMILES | GI50 [1] | CC50 at 72 h [2] | fraction unbound ([3]; CD-1, mouse) | fraction unbound ([3]; human) | inhibition at 10 µM [4] | inhibition at 10 µM [5] | GI50 [6] | GI50 [7] | GI50 [8] | inhibition at 10 µM [9] | inhibition at 10 µM [10] | GI50 [11] | GI50 [12] | GI50 [13] | GI50 [14] | inhibition at 10 µM [15] | inhibition at 10 µM [16] | inhibition at 10 µM [17] | GI50 [18]
COc1cc2c(NC3CCN(C)CC3)cc(-c3ccc(C)o3)nc2cc1OCCCN1CCCC1 [CM-272, 6-methoxy-2-(5-methyl-2-furyl)-N-(1-methyl-4-piperidyl)-7-(3-pyrrolidin-1-ylpropoxy)quinolin-4-amine] | 1.06 µM | 1.9 µM | 0.25 | 0.244 | 9% | 0% | 0.59 µM | 0.93 µM | 0.762 µM | 1% | 5% | > 5 µM | 1.32 µM | 1.63 µM | 1.08 µM | 5% | 6% | 6% | 0.602 µM
COc1cc2c(NCC3CCN(C)CC3)cc(-c3ccc(C)o3)nc2cc1OCCCN1CCCC1 [CM-579, 6-methoxy-2-(5-methyl-2-furyl)-N-[(1-methyl-4-piperidyl)methyl]-7-(3-pyrrolidin-1-ylpropoxy)quinolin-4-amine] | 0.547 µM | 7.39 µM | 0.046 | 0.147 | 3% | 0% | 0.307 µM | > 10 µM | 0.223 µM | 8% | 6% | > 10 µM | 4.35 µM | 7.82 µM | 3.79 µM | 27% | 0% | 17% | 0.176 µM
